Laboratory results: patent US11377442B2, “Small molecule agonists and antagonists of NR2F6 activity” (ZANDER THERAPEUTICS, INC., priority 2016, dated 2022)
Like-named read-outs stand apart in the source and are kept apart here.

Tests used:
Type in all cases: cell-based
NR2F6 = biological target: T1, NR2F6 (Homo sapiens, UniProt P10588); test: NR2F6 agonist screening, Firefly signal cmpd/DMSO
T1 construct: expressed in transfected cells; also transient transfection
T1 sequence (P10588 1-404): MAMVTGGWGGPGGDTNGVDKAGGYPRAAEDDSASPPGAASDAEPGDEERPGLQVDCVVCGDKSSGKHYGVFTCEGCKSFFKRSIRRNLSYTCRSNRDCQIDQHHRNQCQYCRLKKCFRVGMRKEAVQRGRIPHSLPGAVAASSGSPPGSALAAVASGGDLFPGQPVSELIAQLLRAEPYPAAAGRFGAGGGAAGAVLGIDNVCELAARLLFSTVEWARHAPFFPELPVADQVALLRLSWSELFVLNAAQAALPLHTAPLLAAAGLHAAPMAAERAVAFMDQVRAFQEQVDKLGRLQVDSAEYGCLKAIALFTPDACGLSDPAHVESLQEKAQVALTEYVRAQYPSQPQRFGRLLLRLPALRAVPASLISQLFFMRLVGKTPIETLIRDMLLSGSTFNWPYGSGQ

Renilla = Renilla signal in NR2F6 agonist screening, cmpd/DMSO; details: Renilla, F4
HEK293 pGL4 = test: Firefly_pGL signal, cmpd/DMSO (pGL4 control cells); details: Homo sapiens
NR2F6 LBD = biological target: T2, NR2F6 LBD (Homo sapiens, UniProt P10588); test: NR2F6 LBD transient transfection; details: LBD
T2 construct: expressed in transfected cells
T2 sequence (P10588 165-393 limits assumed): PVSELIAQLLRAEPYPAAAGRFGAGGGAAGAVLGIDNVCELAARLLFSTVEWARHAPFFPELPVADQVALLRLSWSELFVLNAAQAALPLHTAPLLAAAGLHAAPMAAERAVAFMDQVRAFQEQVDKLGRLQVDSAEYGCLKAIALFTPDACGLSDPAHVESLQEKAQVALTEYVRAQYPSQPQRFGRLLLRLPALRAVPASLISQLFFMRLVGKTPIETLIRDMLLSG
Method: FIGS. 27A and 27B show NR2F6 and LBD transient transfection, respectively, for Compound D28. Higher concentrations were excluded due to lower signal (tox effect). FIGS. 27C and 27D show NR2F6 and LBD transient transfection at different concentrations for different compounds. 9 compounds were tested on LBD transfected cells (40, 10, 2 and 0.5 μM, 4 replicates). FIGS. 27E and 27F show toxicity of Compound D28. 9 compounds were tested for cytotoxicity on LBD transfected cells (40, 10, 2 and 0.5 μM, 4 replicates). […] Cytotoxicity normalized to DMSO is shown in FIG. 27F (0% cytotoxicity corresponds to DMSO signal, 100%—zero signal).
FIGS. 34A and 34B show NR2F6 LBD transient transfection for Compound E21. 9 compounds were tested on LBD transfected cells (40, 10, 2 and 0.5 μM, 4 replicates). FIGS. 34C and 34D show NR2F6 and LBD transient transfection at different concentrations for different compounds. 9 compounds were tested on LBD transfected cells (40, 10, 2 and 0.5 μM, 4 replicates). […] Cytotoxicity normalized to DMSO is shown in FIG. 34D (0% cytotoxicity corresponds to DMSO signal, 100%—zero signal). All compounds were tested at 5, 10, 25 and 50 uM in duplicates. Dog PBMC (1×10^6 cells/mL) were activated by 10 ng/mL PMA+500 ng/mL ionomycin. Data were normalized to controls with (100%)/without (0%) PMA+ionomycin activation.
FIGS. 39A and 39B show NR2F6 LBD transient transfection for Compound F1. 9 compounds were tested on LBD transfected cells (40, 10, 2 and 0.5 μM, 4 replicates). FIGS. 39C and 39D show toxicity of NR2F6 LBD transient transfection. 9 compounds were tested for cytotoxicity on LBD transfected cells (40, 10, 2 and 0.5 μM, 4 replicates). Tox effect causes lower signal compared to DMSO. Cytotoxicity normalized to DMSO is shown in FIG. 39D (0% cytotoxicity corresponds to DMSO signal, 100%—zero signal).

[1] = read-out: Renilla, F4, cmpd/DMSO (mean)
[2] = 1% FBS, read-out: Renilla, F4, 1% FBS, cmpd/DMSO (mean)
[3] = 10% FBS, read-out: Renilla, F4, 10% FBS, cmpd/DMSO (mean)

With COCCN[C@H]1CS(=O)(=O)C[C@@H]1S(=O)(=O)c1cccs1 [Compound D107] the “Firefly F4, cmpd/DMSO (mean)” value (NR2F6; 0.5 uM) was 1.3, the “Firefly F4, cmpd/DMSO (mean)” value (NR2F6; 2 uM) was 1.6 and the “Firefly F4, cmpd/DMSO (mean)” value (NR2F6; 10 uM) was 2.2. For the same molecule, the “Firefly F4, cmpd/DMSO (mean)” value (NR2F6; 40 uM) was 4.0, the “F4, Firefly/Renilla for S/B(F4) > 3” value (NR2F6; 1% FBS, 40 uM) was 2.2 and the “Firefly, F4/pGL4 for S/B(F4) > 3” value (NR2F6; 1% FBS, 40 uM) was 2.6. The “F4, Firefly/Renilla for S/B(F4) > 3” value (NR2F6; 10% FBS, 40 uM) was 2.9, the “Firefly, F4/pGL4 for S/B(F4) > 3” value (NR2F6; 10% FBS, 40 uM) was 2.7 and the “Firefly, F4, 1% FBS, cmpd/DMSO (mean)” value (NR2F6; 1% FBS, 0.5 uM) was 1.5. For the same molecule, the “Firefly, F4, 1% FBS, cmpd/DMSO (mean)” value (NR2F6; 1% FBS, 2 uM) was 0.8, the “Firefly, F4, 1% FBS, cmpd/DMSO (mean)” value (NR2F6; 1% FBS, 10 uM) was 1.4 and the “Firefly, F4, 1% FBS, cmpd/DMSO (mean)” value (NR2F6; 1% FBS, 40 uM) was 3.8. The “Firefly, F4, 10% FBS, cmpd/DMSO (mean)” value (NR2F6; 10% FBS, 0.5 uM) was 0.8, the “Firefly, F4, 10% FBS, cmpd/DMSO (mean)” value (NR2F6; 10% FBS, 2 uM) was 1.4 and the “Firefly, F4, 10% FBS, cmpd/DMSO (mean)” value (NR2F6; 10% FBS, 10 uM) was 1.5. The “Firefly, F4, 10% FBS, cmpd/DMSO (mean)” value (NR2F6; 10% FBS, 40 uM) was 6.1, the fold induction at 0.5 µM (Renilla; [1]) was 1.1 and the fold induction at 2 µM (Renilla; [1]) was 1. For the same molecule, the fold induction at 10 µM (Renilla; [1]) was 1.2, the fold induction at 40 µM (Renilla; [1]) was 1.5 and the fold induction at 0.5 µM (Renilla; [2]) was 0.9. The fold induction at 2 µM (Renilla; [2]) was 1.2, the fold induction at 10 µM (Renilla; [2]) was 1.3 and the fold induction at 40 µM (Renilla; [2]) was 1.8. It also gave a fold induction at 0.5 µM (Renilla; [3]) of 1, a fold induction at 2 µM (Renilla; [3]) of 1 and a fold induction at 10 µM (Renilla; [3]) of 1.3. For the same molecule, the fold induction at 40 µM (Renilla; [3]) was 2.1, the fold induction at 0.5 µM (HEK293 pGL4; HEK293, 0.5 uM, pGL4, read-out: Firefly pGL4, cmpd/DMSO (mean)) was 1.2 and the fold induction at 2 µM (HEK293 pGL4; HEK293, 2 uM, pGL4, read-out: Firefly pGL4, cmpd/DMSO (mean)) was 1.5. It also gave a fold induction at 10 µM (HEK293 pGL4; HEK293, 10 uM, pGL4, read-out: Firefly pGL4, cmpd/DMSO (mean)) of 2, a fold induction at 40 µM (HEK293 pGL4; HEK293, 40 uM, pGL4, read-out: Firefly pGL4, cmpd/DMSO (mean)) of 2.5 and a fold induction at 0.5 µM (HEK293 pGL4; HEK293, pGL4, 1% FBS, 0.5 uM, read-out: Firefly, pGL4, 1% FBS, cmpd/DMSO (mean)) of 1.3. For the same molecule, the fold induction at 2 µM (HEK293 pGL4; HEK293, pGL4, 1% FBS, 2 uM, read-out: Firefly, pGL4, 1% FBS, cmpd/DMSO (mean)) was 1.4, the fold induction at 10 µM (HEK293 pGL4; HEK293, pGL4, 1% FBS, 10 uM, read-out: Firefly, pGL4, 1% FBS, cmpd/DMSO (mean)) was 1.8 and the fold induction at 40 µM (HEK293 pGL4; HEK293, pGL4, 1% FBS, 40 uM, read-out: Firefly, pGL4, 1% FBS, cmpd/DMSO (mean)) was 1.4. For the same molecule, the fold induction at 0.5 µM (HEK293 pGL4; HEK293, pGL4, 10% FBS, 0.5 uM, read-out: Firefly, pGL4, 10% FBS, cmpd/DMSO (mean)) was 1.1, the fold induction at 2 µM (HEK293 pGL4; HEK293, pGL4, 10% FBS, 2 uM, read-out: Firefly, pGL4, 10% FBS, cmpd/DMSO (mean)) was 1.3 and the fold induction at 10 µM (HEK293 pGL4; HEK293, pGL4, 10% FBS, 10 uM, read-out: Firefly, pGL4, 10% FBS, cmpd/DMSO (mean)) was 1.7. For the same molecule, the fold induction at 40 µM (HEK293 pGL4; HEK293, pGL4, 10% FBS, 40 uM, read-out: Firefly, pGL4, 10% FBS, cmpd/DMSO (mean)) was 2.3, the “Firefly LBD, cmpd/DMSO (mean)” value (NR2F6 LBD; 0.5 uM) was 0.9 and the “Firefly LBD, cmpd/DMSO (mean)” value (NR2F6 LBD; 2 uM) was 1.1. The “Firefly LBD, cmpd/DMSO (mean)” value (NR2F6 LBD; 10 uM) was 2.2 and the “Firefly LBD, cmpd/DMSO (mean)” value (NR2F6 LBD; 40 uM) was 2.2.
